# Measurements: patent US20170342025A1, “ANTIMICROBIAL COMPOUNDS, COMPOSITIONS AND METHODS” (Swansea University, priority 2014, published 2017)
# Where two headings read alike, the source gives them in different places.
# How the values were obtained:
# [1] = tested on: Escherichia coli (strain JM109); test: MIC determination against Escherichia coli (Andrews protocol); format: cell-based; details: Escherichia coli, read-out: MIC E. coli
# Description: (§1) Minimum Inhibitory Concentrations (MICs) for the compounds prepared were determined against Escherichia coli (strain JM109) and Staphylococcus aureus (strain 9518) using the protocols described by Andrews (J. Antimicrob. Chemother., 2001, 48, Suppl. S1, 5-16).
# [2] = tested on: Staphylococcus aureus (strain 9518); test: MIC determination against Staphylococcus aureus (Andrews protocol); format: cell-based; details: Staphylococcus aureus, read-out: MIC S. aureus
# Description: as §1
# [3] = tested on: methicillin-resistant staphylococcus aureus (MRSA) strain MRSA-III (ST239); test: MIC against MRSA strain MRSA-III (ST239); format: cell-based; details: read-out: MIC against MRSA-III
# Description: as §1
# (§2) In addition, three compounds were tested against methicillin-resistant staphylococcus aureus (MRSA) strains MRSA-III (ST239) and EMRSA-15.
# [4] = tested on: methicillin-resistant staphylococcus aureus (MRSA) strain EMRSA-15; test: MIC against MRSA strain EMRSA-15; format: cell-based
# Description: as §1, §2
# [5] = Staphylococcus aureus strain 9518
# [6] = second MRSA strain, text names EMRSA-15, read-out: MIC against MRSA-1
MIC ([1]; Escherichia coli strain JM109),"MIC [2, 5]",melting point,SMILES,MIC ([3]; MRSA-III (ST239)),"MIC [4, 6]",MIC [1],MIC [2],MIC ([3]; MRSA),"MIC ([4]; MRSA, read-out: MIC against MRSA-1)"
1 to 10 µg/mL,1 to 10 µg/mL,159 to 160 °C,"CC(=O)O.N=C(N)NN=Cc1cccc(OCc2cccc(Cl)c2Cl)c1 [Compound 49a, 1-[({3-[(2,3-dichlorophenyl)methoxy]phenyl}methylidene)amino]guanidine acetate]",1 to 10 µg/mL,1 to 10 µg/mL,–,–,–,–
10 to 32 µg/mL,32 to 100 µg/mL,242 to 244 °C,"Cl.N=C(N)N/N=C/c1cccc(OCc2cc(Cl)ccc2Cl)c1Cl [Compound 51g, (E)-Amino(2-(2-chloro-3-((2,5-dichlorobenzyl)oxy)benzylidene)hydrazinyl) methaniminium chloride]",–,–,–,–,–,–
–,–,–,"N=C(N)NCc1cccc(OCc2cccc(C(F)(F)F)c2Cl)c1.O=C(O)C(F)(F)F [Compound 4L, 1-[(3-{[2-chloro-3-(trifluoromethyl)phenyl]methoxy}phenyl)methyl]guanidine 2,2,2-trifluoroacetate]",–,–,1 to 10 µg/mL,10 to 32 µg/mL,1 to 10 µg/mL,1 to 10 µg/mL
1 to 10 µg/mL,32 to 100 µg/mL,274 to 277 °C,"Cl.N=C(N)N/N=C/c1cccc(OCc2cccc(C(F)(F)F)c2Cl)c1Cl [Compound 51e, (E)-Amino(2-(2-chloro-3-((2-chloro-3-(trifluoromethyl)benzyl)oxy)benzylidene) hydrazinyl)methaniminium chloride]",–,–,–,–,–,–
1 to 10 µg/mL,1 to 10 µg/mL,237 to 239 °C,"Cl.N=C(N)N/N=C/c1cccc(OCc2ccc(Cl)cc2)c1Cl [Compound 51c, (E)-Amino(2-(2-chloro-3-((4-chlorobenzyl)oxy)benzylidene)hydrazinyl) methaniminium chloride]",–,–,–,–,–,–

SMILES,MIC ([1]; Escherichia coli strain JM109),"MIC [2, 5]",melting point,MIC ([3]; MRSA-III (ST239)),"MIC [4, 6]",MIC [1],MIC [2],MIC ([3]; MRSA),"MIC ([4]; MRSA, read-out: MIC against MRSA-1)"
"N=C(N)Nc1cccc2c1CCCC2.O=C(O)C(F)(F)F [Compound 23d, 1-(5,6,7,8-tetrahydronaphthalen-1-yl)guanidine 2,2,2-trifluoroacetate]",> 100 µg/mL,> 100 µg/mL,153 to 155 °C,–,–,–,–,–,–
"N=C(N)NCc1ccc(OCc2cccc(Cl)c2Cl)cc1.O=C(O)C(F)(F)F [Compound 19e, 1-(4-((2,3-dichlorobenzyl)oxy)benzyl)guanidine 2,2,2-trifluoroacetate]",1 to 10 µg/mL,10 to 32 µg/mL,–,1 to 10 µg/mL,1 to 10 µg/mL,–,–,–,–
